The nature of test [1]: DRUGMATRIX: GABAA, Chloride Channel, TBOB radioligand binding (ligand: [3H] TBOB). The test is classed as cell membranes, Rattus norvegicus, Wistar, Cerebral cortex, Membrane. Particulars: Not Active = under 50% inhibition at 10 µM.
Test [2] in a line: DRUGMATRIX: Imidazoline I2, Central radioligand binding (ligand: [3H] Idazoxan). Format: cell membranes, Rattus norvegicus, Wistar, Cerebral cortex, Membrane. Particulars: Not Active = under 50% inhibition at 10 µM.
Test [3] can be described thus: DRUGMATRIX: Interleukin IL-1 radioligand binding (ligand: [125I] interleukin 1beta). The test is classed as cell membranes, Membrane. Particulars: nih3t3; Not Active = under 50% inhibition at 10 µM.
The target in a further test is T1, Estrogen receptor (Homo sapiens, UniProt P03372). Further: in other assays of this panel Not Active means under 50% inhibition at 10 µM.
T1 sequence (P03372 whole entry): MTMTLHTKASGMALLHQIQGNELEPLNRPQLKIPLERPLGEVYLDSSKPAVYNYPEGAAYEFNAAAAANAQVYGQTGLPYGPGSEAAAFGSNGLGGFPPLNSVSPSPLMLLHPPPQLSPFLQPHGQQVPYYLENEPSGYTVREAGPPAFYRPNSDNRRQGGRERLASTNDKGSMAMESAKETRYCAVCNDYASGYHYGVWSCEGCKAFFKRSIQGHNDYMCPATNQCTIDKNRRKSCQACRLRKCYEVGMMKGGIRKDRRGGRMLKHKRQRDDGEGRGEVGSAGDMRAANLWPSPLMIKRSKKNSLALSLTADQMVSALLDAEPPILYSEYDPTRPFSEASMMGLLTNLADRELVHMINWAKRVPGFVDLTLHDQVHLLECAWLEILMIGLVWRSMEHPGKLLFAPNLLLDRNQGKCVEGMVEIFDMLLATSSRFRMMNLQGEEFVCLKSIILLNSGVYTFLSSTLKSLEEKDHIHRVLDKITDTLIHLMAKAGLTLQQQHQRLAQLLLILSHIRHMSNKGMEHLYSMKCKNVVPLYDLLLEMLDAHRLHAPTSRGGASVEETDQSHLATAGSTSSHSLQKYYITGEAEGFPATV
Particulars: sf9.

Test [4] has as its target T2, Androgen receptor (Rattus norvegicus, UniProt P15207).
T2 sequence (P15207 whole entry): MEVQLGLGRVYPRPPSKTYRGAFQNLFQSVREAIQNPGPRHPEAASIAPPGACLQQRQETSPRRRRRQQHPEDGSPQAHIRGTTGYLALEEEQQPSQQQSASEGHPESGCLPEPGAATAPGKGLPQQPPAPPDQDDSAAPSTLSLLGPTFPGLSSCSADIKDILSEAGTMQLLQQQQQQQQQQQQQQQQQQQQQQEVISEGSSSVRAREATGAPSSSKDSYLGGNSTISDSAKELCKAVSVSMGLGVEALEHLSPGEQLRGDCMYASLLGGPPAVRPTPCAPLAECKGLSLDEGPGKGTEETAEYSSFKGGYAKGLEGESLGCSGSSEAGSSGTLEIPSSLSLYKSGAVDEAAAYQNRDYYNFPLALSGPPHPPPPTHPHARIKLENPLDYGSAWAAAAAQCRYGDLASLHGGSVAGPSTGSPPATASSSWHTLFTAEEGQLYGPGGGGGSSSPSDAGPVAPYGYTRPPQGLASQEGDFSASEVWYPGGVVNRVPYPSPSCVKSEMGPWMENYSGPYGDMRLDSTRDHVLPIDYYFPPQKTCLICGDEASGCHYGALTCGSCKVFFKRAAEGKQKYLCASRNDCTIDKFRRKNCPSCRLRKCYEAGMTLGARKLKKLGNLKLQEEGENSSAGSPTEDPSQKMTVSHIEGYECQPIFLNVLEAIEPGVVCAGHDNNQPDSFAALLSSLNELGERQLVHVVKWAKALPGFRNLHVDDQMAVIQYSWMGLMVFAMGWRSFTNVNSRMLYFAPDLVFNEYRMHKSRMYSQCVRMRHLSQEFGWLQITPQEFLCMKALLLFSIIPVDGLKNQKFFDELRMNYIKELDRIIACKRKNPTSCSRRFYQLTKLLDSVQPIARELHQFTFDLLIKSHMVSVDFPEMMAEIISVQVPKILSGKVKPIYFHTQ

For test [5], the target named is T2, Androgen receptor. The source holds these as a separate data set.
The target of a further test is Cytochrome P450 2C9 (Homo sapiens, UniProt P11712). Further: in other assays of this panel Not Active means under 50% inhibition at 10 µM.
In the next test the target is Cytochrome P450 2D6 (Homo sapiens, UniProt P10635). Further: in other assays of this panel Not Active means under 50% inhibition at 10 µM.
Chain of Cytochrome P450 2D6 (P10635 whole entry): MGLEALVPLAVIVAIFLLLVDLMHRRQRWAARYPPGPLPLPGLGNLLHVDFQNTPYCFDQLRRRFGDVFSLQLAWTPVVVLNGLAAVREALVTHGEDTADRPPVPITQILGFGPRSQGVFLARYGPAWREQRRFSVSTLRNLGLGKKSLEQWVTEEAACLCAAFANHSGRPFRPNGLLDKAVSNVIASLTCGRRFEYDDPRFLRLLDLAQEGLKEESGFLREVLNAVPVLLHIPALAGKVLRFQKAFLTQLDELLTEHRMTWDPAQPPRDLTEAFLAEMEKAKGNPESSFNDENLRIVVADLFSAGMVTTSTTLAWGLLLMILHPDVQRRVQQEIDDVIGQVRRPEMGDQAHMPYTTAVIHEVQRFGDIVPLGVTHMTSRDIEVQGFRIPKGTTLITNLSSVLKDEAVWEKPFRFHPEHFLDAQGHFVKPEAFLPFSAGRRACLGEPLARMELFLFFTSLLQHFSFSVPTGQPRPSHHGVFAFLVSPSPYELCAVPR

Chain of Cytochrome P450 2C9 (P11712 whole entry): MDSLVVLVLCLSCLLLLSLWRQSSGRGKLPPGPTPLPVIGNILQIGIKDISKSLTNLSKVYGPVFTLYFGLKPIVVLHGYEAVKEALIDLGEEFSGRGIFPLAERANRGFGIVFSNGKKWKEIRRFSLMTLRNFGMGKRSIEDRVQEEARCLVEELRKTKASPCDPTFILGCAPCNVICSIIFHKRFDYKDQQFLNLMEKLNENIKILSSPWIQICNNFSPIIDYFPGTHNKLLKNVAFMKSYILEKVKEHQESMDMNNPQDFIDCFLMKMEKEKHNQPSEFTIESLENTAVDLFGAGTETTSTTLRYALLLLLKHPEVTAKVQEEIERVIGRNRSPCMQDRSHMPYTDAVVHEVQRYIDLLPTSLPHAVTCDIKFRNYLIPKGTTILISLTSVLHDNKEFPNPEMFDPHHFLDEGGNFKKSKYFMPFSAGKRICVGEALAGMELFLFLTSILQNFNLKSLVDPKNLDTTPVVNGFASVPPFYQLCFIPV

For the compound `CCCCC(=O)N(Cc1ccc(-c2ccccc2-c2nnn[nH]2)cc1)[C@H](C(=O)O)C(C)C`, the IC50 result (in test [1]; in test [2]; in test [3]; against Estrogen receptor) was “Not Active” throughout. Moreover, the Ki result in test [1], in test [2] and in test [3] was “Not Active” each time.

In the case of `O=C(O)COc1ccc(C(=O)c2cccs2)c(Cl)c1Cl`, the IC50 entry (in test [1]; in test [2]; in test [3]; on Androgen receptor [4]; against Estrogen receptor) was “Not Active” throughout. Moreover, the Ki result in test [1], in test [2] and in test [3] was “Not Active” each time.

Consider `CN1[C@@H]2CC[C@H]1C[C@@H](OC(c1ccccc1)c1ccccc1)C2` [BENZTROPINE], for which, at Estrogen receptor, the IC50 entry is recorded as “Not Active”.

`C[C@@](Cc1ccc(O)c(O)c1)(NN)C(=O)O.O` [CARBIDOPA]: the IC50 result in test [1], in test [2] and in test [3] was “Not Active” in each case. For the same compound, the Ki entry in test [1], in test [2] and in test [3] was “Not Active” each time.

Regarding `CN1CCN(C2=Nc3cc(Cl)ccc3Nc3ccccc32)CC1` [CLOZAPINE], the half-inhibitory concentration (IC50) result on Estrogen receptor was “Not Active”.

`O=C(O)CCCCC1CCSS1` (stereo not drawn) [LIPOIC ACID, ALPHA]: the IC50 result (in test [1]; in test [2]; in test [3]; against Estrogen receptor) was “Not Active” throughout. In addition, the Ki result in test [1], in test [2] and in test [3] was “Not Active” in each case.

As to `CN(C)C(=O)C(CCN1CCC(O)(c2ccc(Cl)cc2)CC1)(c1ccccc1)c1ccccc1` [LOPERAMIDE], the IC50 entry against Estrogen receptor was “Not Active”.

Regarding `Clc1ccc(COC(Cn2ccnc2)c2ccc(Cl)cc2Cl)c(Cl)c1` (configuration not stated) [MICONAZOLE], the IC50 on Androgen receptor [5] was 7090 nM; at Cytochrome P450 2C9, 200 nM; on Cytochrome P450 2D6, 1000 nM; at Estrogen receptor it was “Not Active”. On Androgen receptor [5], this compound had a Ki of 4730 nM.

For `Oc1ccc2c3c1O[C@H]1[C@@H](O)CC[C@@]4(O)[C@@H](C2)N(CC2CCC2)CC[C@]314` [NALBUPHINE], the IC50 result on Androgen receptor [4] and against Estrogen receptor was “Not Active” each time.

Regarding `C[C@]12C=CC(=O)C=C1CC[C@@H]1[C@@H]2C(=O)C[C@@]2(C)[C@H]1CC[C@]2(O)C(=O)CO` [PREDNISONE], the IC50 result (in test [1]; in test [2]; in test [3]; against Estrogen receptor) was “Not Active” throughout. Moreover, the Ki result in test [1], in test [2] and in test [3] was “Not Active” throughout.

Turning to `COC(=O)[C@H]1[C@H]2C[C@@H]3c4[nH]c5cc(OC)ccc5c4CCN3C[C@H]2C[C@@H](OC(=O)c2cc(OC)c(OC)c(OC)c2)[C@@H]1OC` [RESERPINE], the IC50 result in test [1], in test [2] and in test [3] was “Not Active” each time. The Ki result in test [1], in test [2] and in test [3] was “Not Active” each time.

As for `O=C(O)c1ccccc1O` [SALICYLIC ACID], the IC50 result (in test [1]; in test [2]; in test [3]; at Estrogen receptor) was “Not Active” throughout. Further, the Ki result in test [1], in test [2] and in test [3] was “Not Active” throughout.

On to `CC1CCC(NC(=O)N(CCCl)N=O)CC1` (configuration not stated) [SEMUSTINE], for which the IC50 result was “Not Active” in test [1], 1620 nM in test [2] (read-out: IC50), “Not Active” in test [3] and “Not Active” against Estrogen receptor. In addition, the Ki entry was “Not Active” in test [1], 1080 nM in test [2] (read-out: Ki) and “Not Active” in test [3].

For `C[N+](C)(C)CCOC(=O)CCC(=O)OCC[N+](C)(C)C.[Cl-].[Cl-]` [SUCCINYLCHOLINE CHLORIDE], the IC50 result (in test [1]; in test [2]; in test [3]; against Estrogen receptor) was “Not Active” each time. Further, the Ki result in test [1], in test [2] and in test [3] was “Not Active” in each case.

As for `Nc1ccc(S(=O)(=O)NC(=O)c2ccccc2)cc1` [SULFABENZAMIDE], the IC50 result (in test [1]; in test [2]; in test [3]; on Estrogen receptor) was “Not Active” in each case. In addition, the Ki result in test [1], in test [2] and in test [3] was “Not Active” in each case.

`CCCCCCCCNC(C)C(O)c1ccc(SC(C)C)cc1` (configuration not stated) [SULOCTIDIL]: the IC50 result (in test [1]; in test [2]; against Androgen receptor [4]; against Estrogen receptor) was “Not Active” in each case. Besides, the Ki result in test [1] and in test [2] was “Not Active” each time.

As for `O=c1[nH]c(=O)n(C2CCCO2)cc1F` (configuration not stated) [TEGAFUR], the IC50 result in test [1], in test [2] and in test [3] was “Not Active” in each case. The Ki entry in test [1], in test [2] and in test [3] was “Not Active” each time.

On to `CC(=N)S` [THIOACETAMIDE], for which the IC50 result in test [1], in test [2] and in test [3] was “Not Active” throughout. Besides, the Ki result in test [1], in test [2] and in test [3] was “Not Active” each time.

Turning to `Cc1ccc(C(=O)c2ccc(CC(=O)O)n2C)cc1` [TOLMETIN], the IC50 result (in test [1]; in test [2]; in test [3]; against Androgen receptor [4]; at Estrogen receptor) was “Not Active” throughout. Besides, the Ki result in test [1], in test [2] and in test [3] was “Not Active” each time.

As to `CC(=O)OCC(COC(C)=O)OC(C)=O` [TRIACETIN], the IC50 entry in test [1], in test [2] and in test [3] was “Not Active” throughout. Besides, the Ki entry in test [1], in test [2] and in test [3] was “Not Active” in each case.

Turning to `CN1CCN(CCCN2c3ccccc3Sc3ccc(C(F)(F)F)cc32)CC1` [TRIFLUOPERAZINE], the IC50 result in test [1], in test [2] and in test [3] was “Not Active” throughout. The Ki entry in test [1], in test [2] and in test [3] was “Not Active” throughout.

Regarding TRANSPLATIN, the IC50 result (in test [1]; in test [2]; in test [3]; on Androgen receptor [4]; on Estrogen receptor) was “Not Active” throughout. In addition, the Ki entry (in test [1]; in test [2]; in test [3]; on Androgen receptor [4]; at Estrogen receptor) was “Not Active” throughout.

As to ZIRCONIUM(IV) CHLORIDE, the IC50 entry (in test [1]; in test [2]; in test [3]; against Androgen receptor [4]; against Estrogen receptor) was “Not Active” throughout. Further, the Ki entry (in test [1]; in test [2]; in test [3]; on Androgen receptor [4]; on Estrogen receptor) was “Not Active” each time.
